Data from US7973059B2, “Potassium channel inhibitors” (Merck Sharp & Dohme Corp., priority 2005, dated 2011).

Biological target: human Kv1.5 potassium channel alpha subunit (Homo sapiens, UniProt P22460)
Assay: High throughput Kv1.5 planar patch clamp assay (Kv1.5 HT-clamp, IonWorks HT)
Assay type: cell-based
Parameters: Kv1.5 HT-clamp % inhibition: dose or concentration left out as unconfirmed
Conditions: for IC50: CHO cells stably expressing human Kv1.5, 27th depolarization to +40 mV in 5 Hz train
Excerpt: The high throughput Kv1.5 planar patch clamp assay is a systematic primary screen. It confirms activity and provides a functional measure of the potency of agents that specifically affect Kv1.5 potassium channels. Kiss et al. (Assay and Drug Dev. Tech., 1(1-2):127-135, 2003) and Schroeder et al. (J. of Biomol. Screen., 8(1); 50-64, 2003) describe the use of this instrument for Kv1.5 as well as other voltage gated ion channels.
Chinese hamster ovary cells (CHO) stably expressing the human Kv1.5 potassium channel alpha subunit, cloned from human heart, are grown to 90-100% confluence in Ham's F12 medium supplemented with 10% FBS, 100 U/ml penicillin, 100 μg/ml streptomycin, 1000 μg/ml G-418 sulfate. Cells are subcultured by treatment with Versene, then suspended in phosphate-buffered saline (PBS) and centrifuged The cell pellet is re-suspended in PBS and the resulting suspension placed in the cell reservoir of the IonWorks™ HT instrument.
Electrophysiological recordings are performed with intracellular solution containing (mM): K-gluconate 100, KCl 40, MgCl2 3.2, EGTA 3, N-2-hydroxylethylpiperazine-N^1-2-ethanesulphonic acid (HEPES) 5, adjusted to pH 7.3. Amphotericin (Sigma) is prepared as 30 mg/ml stock solution and diluted to a final working concentration of 0.1 mg/ml in internal buffer solution. The external solution is Dulbecco's PBS (Invitrogen) and contains (mM): CaCl2 0.90, KCl 2.67, K3PO4 1.47, MgCl2 0.50, NaCl 138, Na3PO4 8.10 and has a pH of 7.4. All compounds are prepared as 10 mM stock solutions in DMSO. Compounds are diluted into external buffer, then transferred from the drug plate to the Patchplate during the experiment (final DMSO concentration <0.66% vol.).
Kv1.5 ionic currents are recorded at room temperature. Membrane currents are amplified (RMS ˜10 pA) and sampled at 10 kHz. Leak subtraction was performed in all experiments by applying a 160 ms hyperpolarizing (10 mV) pre-pulses 200 ms before the test pulses to measure leak conductance. The patch clamp stimulus protocol is as follows: • 1. Patchplate wells are loaded with 3.5 μL of external buffer. • 2. Planar micropipette hole resistances (Rp) is determined by applying a 10 mV, 160 ms potential difference across each hole (Hole test). • 3. Cells are pipetted into the Patchplate and form high resistance seals with the 1-2 μm holes at the bottom of each Patchplate well. A seal test scan is performed to determine how many of the Patchplate wells have cells that have formed seals. • 4. In order to gain electrical access to the cells, intracellular solution containing amphotericin is circulated for 4 minutes on the bottom side of the Patchplate. • 5. Pre-compound addition test pulse is applied to each well on the Patchplate. Protocol: Cells are voltage clamped at a membrane holding potential of −80 mV for 15 seconds. This is followed by application of a 5 Hz stimulus train (27×150 ms depolarizations to +40 mV). The membrane potential steps to +40 mV evoke outward (positive) ionic currents. • 6. Compound is added to each well of the Patchplate. Compounds are allowed to incubate for 5 minutes. • 7. Post-compound addition test pulse protocol is applied. Protocol: Cells are voltage clamped at a membrane holding potential of −80 mV for 15 seconds. This is followed by application of a 5 Hz stimulus train (27×150 ms depolarizations to +40 mV).
Data analysis is conducted off-line. Paired comparisons between pre-drug and post-drug additions are used to determine the inhibitory effect of each compound. % inhibition of the peak control current during the 27th depolarization to +40 mV (in the 5 Hz train) is plotted as a function of antagonist concentration. The concentrations of drug required to inhibit current by 50% (IC50) are determined by fitting of the Hill equation to the concentration response data: % of Control=100×(1+([Drug]/IC50)^p)^−1 […]

human Kv1.5 potassium channel alpha subunit, sequence (P22460 whole entry): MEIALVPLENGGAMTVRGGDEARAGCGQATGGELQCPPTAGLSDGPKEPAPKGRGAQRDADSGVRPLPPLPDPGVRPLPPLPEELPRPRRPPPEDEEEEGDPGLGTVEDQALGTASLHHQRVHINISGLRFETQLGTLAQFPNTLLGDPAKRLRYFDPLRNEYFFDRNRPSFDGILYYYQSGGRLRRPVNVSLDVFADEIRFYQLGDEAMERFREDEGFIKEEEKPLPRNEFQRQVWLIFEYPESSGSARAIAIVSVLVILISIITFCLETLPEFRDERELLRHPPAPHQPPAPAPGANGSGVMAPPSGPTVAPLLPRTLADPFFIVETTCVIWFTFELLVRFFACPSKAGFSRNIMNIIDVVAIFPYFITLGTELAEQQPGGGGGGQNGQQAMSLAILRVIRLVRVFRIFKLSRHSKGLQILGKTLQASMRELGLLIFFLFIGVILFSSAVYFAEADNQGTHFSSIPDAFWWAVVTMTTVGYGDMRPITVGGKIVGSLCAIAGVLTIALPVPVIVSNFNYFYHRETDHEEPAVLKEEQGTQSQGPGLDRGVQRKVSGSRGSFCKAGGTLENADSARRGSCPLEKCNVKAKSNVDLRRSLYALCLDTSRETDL

Row | IC50 [nM] | Compound | other results
1 |  | OC(c1cccnc1-c1cc(Cl)cc(Cl)c1)C(c1cccnc1)c1cccnc1F (single isomer, unassigned) [Example 3 Isomer 1, Enantiomer B, 1-[2-(3,5-dichlorophenyl)pyridin-3-yl]-2-(2-fluoropyridin-3-yl)-2-pyridin-3-ylethanol] | Kv1.5 HT-clamp % inhibition: 72%
2 | 266 | OC(c1cccnc1-c1cccc(C(F)(F)F)c1)C(c1cccnc1)c1cccnc1 (racemic) [Example 2 Racemic, racemic 2,2-dipyridin-3-yl-1-{2-[3-(trifluoromethyl)-phenyl]pyridin-3-yl}ethanol] | 
3 | 75 | OC(c1cccnc1-c1cc(Cl)ccc1Cl)C(c1cccnc1)c1cccnc1 (single isomer, unassigned) [Example 5 Enantiomer B, 1-[2-(2,5-dichlorophenyl)pyridin-3-yl]-2,2-dipyridin-3-ylethanol] | 
4 | 110 | OC(c1cccnc1-c1cccc(Cl)c1Cl)C(c1cccnc1)c1cccnc1 (racemic) [Example 6 Racemic, racemic 1-[2-(2,3-dichlorophenyl)pyridin-3-yl]-2,2-dipyridin-3-ylethanol] | 
5 | 171 | OC(c1cccnc1-c1ccccc1Cl)C(c1cccnc1)c1cccnc1 (single isomer, unassigned) [Example 4 Enantiomer A, 1-[2-(2-chlorophenyl)pyridin-3-yl]-2,2-dipyridin-3-ylethanol] | 
6 |  | OC(c1cccnc1-c1cc(Cl)cc(Cl)c1)C(c1cccnc1)c1cccnc1F (single isomer, unassigned) [Example 3 Isomer 2, Enantiomer B, 1-[2-(3,5-dichlorophenyl)pyridin-3-yl]-2-(2-fluoropyridin-3-yl)-2-pyridin-3-ylethanol] | inhibition at 10 µM (at 10000 nM): 89%
7 | 5210 | OC(c1cccnc1-c1cccc(Cl)c1Cl)C(c1cccnc1)c1cccnc1 (single isomer, unassigned) [Example 6 Enantiomer A, 1-[2-(2,3-dichlorophenyl)pyridin-3-yl]-2,2-dipyridin-3-ylethanol] | 
8 | 3200 | OC(c1cccnc1-c1cc(Cl)ccc1Cl)C(c1cccnc1)c1cccnc1 (single isomer, unassigned) [Example 5 Enantiomer A, 1-[2-(2,5-dichlorophenyl)pyridin-3-yl]-2,2-dipyridin-3-ylethanol] | 
9 | 25000 | OC(c1cccnc1-c1ccccc1Cl)C(c1cccnc1)c1cccnc1 (single isomer, unassigned) [Example 4 Enantiomer B, 1-[2-(2-chlorophenyl)pyridin-3-yl]-2,2-dipyridin-3-ylethanol] | 
10 | 422 | OC(c1cccnc1-c1ccccc1Cl)C(c1cccnc1)c1cccnc1 (racemic) [Example 4 Racemic, racemic 1-[2-(2-chlorophenyl)pyridin-3-yl]-2,2-dipyridin-3-ylethanol] | 
11 | 236 | OC(c1cccnc1-c1cccc(Cl)c1Cl)C(c1cccnc1)c1cccnc1 (single isomer, unassigned) [Example 6 Enantiomer B, 1-[2-(2,3-dichlorophenyl)pyridin-3-yl]-2,2-dipyridin-3-ylethanol] | 
12 | 77 | OC(c1cccnc1-c1cc(Cl)ccc1Cl)C(c1cccnc1)c1cccnc1 (racemic) [Example 5 Racemic, racemic 1-[2-(2,5-dichlorophenyl)pyridin-3-yl]-2,2-dipyridin-3-ylethanol] | 
13 | 154 | OC(c1cccnc1-c1cc(Cl)cc(Cl)c1)C(c1cccnc1)c1cccnc1F (single isomer, unassigned) [Example 3 Isomer 2, Enantiomer A, 1-[2-(3,5-dichlorophenyl)pyridin-3-yl]-2-(2-fluoropyridin-3-yl)-2-pyridin-3-ylethanol] | 
14 | 8220 | OC(c1cccnc1-c1cccc(C(F)(F)F)c1)C(c1cccnc1)c1cccnc1 (single isomer, unassigned) [Example 2 Enantiomer B, 2,2-dipyridin-3-yl-1-{2-[3-(trifluoromethyl)phenyl]pyridin-3-yl}ethanol] | 
15 | 290 | OC(c1cccnc1-c1cccc(C(F)(F)F)c1)C(c1cccnc1)c1cccnc1 (single isomer, unassigned) [Example 2 Enantiomer A, 2,2-dipyridin-3-yl-1-{2-[3-(trifluoromethyl)phenyl]pyridin-3-yl}ethanol] | 
16 | 116 | OC(c1cccnc1-c1cc(Cl)cc(Cl)c1)C(c1cccnc1)c1cccnc1 (racemic) [Example 1 Racemic, racemic 1-[2-(3,5-dichlorophenyl)pyridin-3-yl]-2,2-dipyridin-3-ylethanol] | 
17 | 2920 | O[C@H](c1cccnc1-c1cc(Cl)cc(Cl)c1)C(c1cccnc1)c1cccnc1 [(S)-1-[2-(3,5-dichlorophenyl)pyridin-3-yl]-2,2-dipyridin-3-ylethanol] | 
18 | 96 | OC(c1cccnc1-c1cc(Cl)cc(Cl)c1)C(c1cccnc1)c1cccnc1F (single isomer, unassigned) [Example 3 Isomer 1, Enantiomer A, 1-[2-(3,5-dichlorophenyl)pyridin-3-yl]-2-(2-fluoropyridin-3-yl)-2-pyridin-3-ylethanol] | 
19 | 90 | O[C@@H](c1cccnc1-c1cc(Cl)cc(Cl)c1)C(c1cccnc1)c1cccnc1 [(R)-1-[2-(3,5-dichlorophenyl)pyridin-3-yl]-2,2-dipyridin-3-ylethanol] | 
